Test results: ChEMBL document CHEMBL5154852, “Design, synthesis, and biological evaluations of substituted pyrazoles as pyrrolomycin analogues against staphylococcal biofilm” (Eur J Med Chem, 2022)
Converted amounts (≈) assume the structure as drawn. “And” between values parts separate entries of the source, which are not always exact repeats. Identical values can stand only once. The source made the active and inactive calls. No cut-off for these calls is given here.

Columns and labels:
Staphylococcus aureus [1] = test: Antibacterial activity against vancomycin-intermediate Staphylococcus aureus Mu50 incubated for 24 hrs by broth microdilution method; type: functional
Staphylococcus aureus [2] = test: Antibacterial activity against vancomycin-susceptible methicillin-susceptible Staphylococcus aureus Newman incubated for 24 hrs by broth microdilution method; type: functional
Staphylococcus aureus [3] = test: Antimicrobial activity against methicillin-resistant Staphylococcus aureus USA300 LAC incubated for 24 hrs by broth microdilution method; type: functional
Staphylococcus aureus [4] = test: Antimicrobial activity against methicillin and linezoid-resistant Staphylococcus aureus NRS271 incubated for 24 hrs by broth microdilution method; type: functional
Enterococcus faecalis [5] = test: Antibacterial activity against vancomycin-resistant, teicoplanin sensitive Enterococcus faecalis HS0847 incubated for 24 hrs by broth microdilution method; type: functional
[6] = Cytotoxicity against human L02 cells after 72 hrs by CCK-8 assay; type: toxicity, cell-based
Enterococcus faecalis [7] = test: Antibacterial activity against vancomycin-resistant, teicoplanin resistant Enterococcus faecalis HS06188 incubated for 24 hrs by broth microdilution method; type: functional
Staphylococcus aureus [8] = test: Antimicrobial activity against methicillin-resistant Staphylococcus aureus NRS100 incubated for 24 hrs by broth microdilution method; type: functional
[9] = Selectivity index, ratio of IC50 for L02 cell cytotoxicity over MIC for vancomycin-susceptible methicillin-susceptible Staphylococcus aureus Newman; type: toxicity; details: human, L02 cells
[10] = Metabolic stability in dog liver microsomes assessed metabolic bioavailability at 0.1 uM in presence of NADPH measured by LC-MS/MS analysis; type: ADME, Canis lupus familiaris, Microsome; details: read-out: Stability
Enterococcus faecalis [11] = test: Antibacterial activity against vancomycin-resistant, teicoplanin resistant Enterococcus faecalis HS0649 incubated for 24 hrs by broth microdilution method; type: functional
Staphylococcus aureus [12] = test: Antibiofilm activity against methicillin-resistant Staphylococcus aureus USA300 LAC assessed as decrease in biofilm formation at 0.0625 ug/ml measured by crystal violet staining assay; type: functional, organism-based; details: dose 0.0625 µg/ml
Enterococcus faecalis [13] = test: Antibacterial activity against vancomycin-resistant, teicoplanin sensitive Enterococcus faecalis HS08257 incubated for 24 hrs by broth microdilution method; type: functional
[14] = Metabolic stability in mouse liver microsomes assessed metabolic bioavailability at 0.1 uM in presence of NADPH measured by LC-MS/MS analysis; type: ADME, Microsome; details: read-out: Stability
Enterococcus faecalis [15] = test: Antibacterial activity against vancomycin-resistant, teicoplanin sensitive Enterococcus faecalis VanB01 incubated for 24 hrs by broth microdilution method; type: functional
Staphylococcus aureus [16] = test: Antimicrobial activity against methicillin-resistant Staphylococcus aureus USA400 MW2 incubated for 24 hrs by broth microdilution method; type: functional
[17] = Metabolic stability in monkey liver microsomes assessed metabolic bioavailability at 0.1 uM in presence of NADPH measured by LC-MS/MS analysis; type: ADME, Macaca mulatta, Microsome; details: rhesus monkey, read-out: Stability
[18] = Metabolic stability in human liver microsomes assessed metabolic bioavailability at 0.1 uM in presence of NADPH measured by LC-MS/MS analysis; type: ADME, Microsome; details: read-out: Stability

Row | Structure (SMILES) | MIC (Staphylococcus aureus [1]) [µg/mL] | MIC (Staphylococcus aureus [2]) [µg/mL] | MIC (Staphylococcus aureus [3]) [µg/mL] | also measured
1 | O=C(O)c1n[nH]c2c(=O)c3c(O)c(Cl)cc(Cl)c3oc12 | > 256 | > 256 | > 256 | 
2 | N#Cc1n[nH]c2c1S(=O)(=O)c1ccccc1C2=O | > 256 | > 256 | > 256 | 
3 | N#Cc1cc(C(=O)c2cc(Cl)c(Cl)cc2O)[nH]n1 | 0.25 (≈ 0.886 µM) | 0.25 (≈ 0.886 µM) | 0.25 (≈ 0.886 µM) | MIC (Staphylococcus aureus [4]): 1 µg/mL (≈ 3.55 µM); MIC (Enterococcus faecalis [5]): 0.5 µg/mL (≈ 1.77 µM); IC50 at 72 h [6]: 10.7 µM and 3.02 µg/mL; MIC (Enterococcus faecalis [7]): > 128 µg/mL; MIC (Staphylococcus aureus [8]): 0.5 µg/mL (≈ 1.77 µM); selectivity ratio [9]: > 12; Fh at 0.1 µM [10]: 9.79%; MIC (Enterococcus faecalis [11]): 0.5 µg/mL (≈ 1.77 µM); Activity (Staphylococcus aureus [12]): Active; MIC (Enterococcus faecalis [13]): 0.25 µg/mL (≈ 0.886 µM); Fh at 0.1 µM [14]: 10.2%; MIC (Enterococcus faecalis [15]): 1 µg/mL (≈ 3.55 µM); MIC (Staphylococcus aureus [16]): < 0.125 µg/mL; Fh at 0.1 µM [17]: 85.6%; Fh at 0.1 µM [18]: 69.7%
4 | O=c1c2[nH]nc(C(F)(F)F)c2sc2c(Cl)cc(Cl)c(O)c12 | 1 (≈ 2.82 µM) | 2 (≈ 5.63 µM) | 2 (≈ 5.63 µM) | 
5 | NC(=O)c1n[nH]c2c(=O)c3c(O)c(Cl)cc(Cl)c3oc12 | > 256 | > 256 | > 256 | 
6 | CN[C@H](CC(C)C)C(=O)N[C@H]1C(=O)N[C@@H](CC(N)=O)C(=O)N[C@H]2C(=O)N[C@H]3C(=O)N[C@H](C(=O)N[C@H](C(=O)O)c4cc(O)cc(O)c4-c4cc3ccc4O)[C@H](O)c3ccc(c(Cl)c3)Oc3cc2cc(c3O[C@@H]2O[C@H](CO)[C@@H](O)[C@H](O)[C@H]2O[C@H]2C[C@](C)(N)[C@H](O)[C@H](C)O2)Oc2ccc(cc2Cl)[C@H]1O [VANCOMYCIN] | 8 (≈ 5.52 µM) |  |  | MIC (Enterococcus faecalis [5]): 0.25 µg/mL (≈ 0.173 µM); IC50 at 72 h [6]: > 30 µM and > 43 µg/mL; MIC (Enterococcus faecalis [7]): 2 µg/mL (≈ 1.38 µM); MIC (Enterococcus faecalis [11]): 0.5 µg/mL (≈ 0.345 µM); MIC (Enterococcus faecalis [13]): < 0.125 µg/mL; MIC (Enterococcus faecalis [15]): 0.25 µg/mL (≈ 0.173 µM); MIC (Staphylococcus aureus [16]): < 0.125 µg/mL
7 | O=C(c1cc(C(F)(F)F)n[nH]1)c1cc(F)c(F)cc1O | 1 (≈ 3.42 µM) | 0.5 (≈ 1.71 µM) | 0.5 (≈ 1.71 µM) | 
8 | O=C(c1cc(C(F)(F)F)n[nH]1)c1cc(Cl)c(F)cc1O | 0.25 (≈ 0.81 µM) | 0.25 (≈ 0.81 µM) | 0.25 (≈ 0.81 µM) | MIC (Staphylococcus aureus [4]): > 128 µg/mL; MIC (Enterococcus faecalis [5]): 0.5 µg/mL (≈ 1.62 µM); MIC (Enterococcus faecalis [7]): > 128 µg/mL; MIC (Staphylococcus aureus [8]): 0.25 µg/mL (≈ 0.81 µM); MIC (Enterococcus faecalis [11]): 1 µg/mL (≈ 3.24 µM); MIC (Enterococcus faecalis [13]): 0.5 µg/mL (≈ 1.62 µM); MIC (Enterococcus faecalis [15]): 1 µg/mL (≈ 3.24 µM); MIC (Staphylococcus aureus [16]): 0.25 µg/mL (≈ 0.81 µM)
9 | O=c1c2[nH]nc(C(F)(F)F)c2oc2c(Cl)cc(Cl)c(O)c12 | 1 (≈ 2.95 µM) | 1 (≈ 2.95 µM) | 2 (≈ 5.9 µM) | 
10 | Cc1n[nH]c2c(=O)c3c(O)c(Cl)cc(Cl)c3oc12 | > 256 | > 256 | > 256 | 
11 | O=C1c2[nH]nc(C(F)(F)F)c2S(=O)(=O)c2c(Cl)cc(Cl)c(O)c21 | 256 (≈ 661 µM) | 128 (≈ 331 µM) | 256 (≈ 661 µM) | 
12 | O=C(c1cc(C(F)(F)F)n[nH]1)c1cc(Cl)c(Cl)cc1O | 0.0312 (≈ 0.0961 µM) | 0.0625 (≈ 0.192 µM) | 0.0625 (≈ 0.192 µM) | MIC (Staphylococcus aureus [4]): > 128 µg/mL; MIC (Enterococcus faecalis [5]): 0.25 µg/mL (≈ 0.769 µM); IC50 at 72 h [6]: 2.57 µM and 0.84 µg/mL; MIC (Enterococcus faecalis [7]): > 128 µg/mL; MIC (Staphylococcus aureus [8]): 0.5 µg/mL (≈ 1.54 µM); selectivity ratio [9]: > 13; Fh at 0.1 µM [10]: 7.07%; MIC (Enterococcus faecalis [11]): 0.5 µg/mL (≈ 1.54 µM); Activity (Staphylococcus aureus [12]): Active; MIC (Enterococcus faecalis [13]): < 0.125 µg/mL; Fh at 0.1 µM [14]: 10.1%; MIC (Enterococcus faecalis [15]): 0.5 µg/mL (≈ 1.54 µM); MIC (Staphylococcus aureus [16]): 0.25 µg/mL (≈ 0.769 µM); Fh at 0.1 µM [17]: 28.6%; Fh at 0.1 µM [18]: 42%
13 | COC(=O)c1n[nH]c2c(=O)c3c(O)c(Cl)cc(Cl)c3oc12 | 16 (≈ 48.6 µM) | 4 (≈ 12.2 µM) | 16 (≈ 48.6 µM) | 
14 | N#Cc1cc(C(=O)c2cc(Cl)c(F)cc2O)[nH]n1 | 0.5 (≈ 1.88 µM) | 0.5 (≈ 1.88 µM) | 0.5 (≈ 1.88 µM) | 
15 | Cc1cc(C(=O)c2cc(C(F)(F)F)n[nH]2)c(O)cc1F | 1 (≈ 3.47 µM) | 0.25 (≈ 0.867 µM) | 0.25 (≈ 0.867 µM) | 
16 | O=C1c2ccccc2S(=O)(=O)c2c(C(F)(F)F)n[nH]c21 | > 256 | > 256 | > 256 | 
17 | N#Cc1n[nH]c2c(=O)c3c(O)c(Cl)cc(Cl)c3oc12 | 8 (≈ 27 µM) | 4 (≈ 13.5 µM) | 8 (≈ 27 µM) | 
18 | Cc1cc(C(=O)c2cc(C#N)n[nH]2)c(O)cc1F | 0.25 (≈ 1.02 µM) | 0.5 (≈ 2.04 µM) | 0.5 (≈ 2.04 µM) | 
19 | O=C(O)c1cn(C2CC2)c2cc(N3CCNCC3)c(F)cc2c1=O [CIPROFLOXACIN] | 32 (≈ 96.6 µM) | 0.25 (≈ 0.754 µM) | 2 (≈ 6.04 µM) | IC50 at 72 h [6]: 12.2 µM and 4.05 µg/mL
20 | N#Cc1n[nH]c2c(=O)c3ccccc3sc12 | 32 (≈ 141 µM) | 8 (≈ 35.2 µM) | 32 (≈ 141 µM) | 
21 | N#Cc1cc(C(=O)c2cc(Cl)cc(Cl)c2O)[nH]n1 | 2 (≈ 7.09 µM) | 2 (≈ 7.09 µM) | 2 (≈ 7.09 µM) | 
22 | N#Cc1n[nH]c2c(=O)c3c(O)c(Cl)cc(Cl)c3sc12 | 2 (≈ 6.41 µM) | 2 (≈ 6.41 µM) | 2 (≈ 6.41 µM) | 
23 | O=c1c2ccccc2sc2c(C(F)(F)F)n[nH]c12 | > 256 | > 256 | > 256 | 
